Patent publication US12371414B2, “Methods of treating neurological disorders” (NEUMORA THERAPEUTICS, INC., priority 2022, dated 2025)
pIC50: −log10 of the molar value.

Key:
[1] = biological target: T1, CK-1δ (Homo sapiens, UniProt P48730); assay: Biochemical kinase assay (HotSpot radioisotope filter binding, Reaction Biology); design: purchased Reaction Biology; settings: read-out: Biochemical Kinase Assay CK-1d IC50
Method: Biochemical inhibition of CK-1δ and kinome selectivity was assessed using a HotSpot radioisotope filter binding assay (Reaction Biology). In the HotSpot assay, compounds were incubated with the kinase, substrate, cofactors, and radioisotope-labeled ATP. The reaction mixtures are then spotted onto filter papers, which bind the radioisotope-labeled catalytic product that can be quantified.
(§1) The IC50 ranges are as follows: for NanoBRET IC50 (nM), A denotes <400 nM; B denotes 400 nM≤KD<800 nM; C denotes KD≥800 nM. For the biochemical kinase assay IC50 (nM), A denotes <50 nM; B denotes 50 nM≤IC50<100 nM; C denotes ≥100 nM.

[2] = biological target: T1, CK-1δ; assay: Cellular target engagement (NanoBRET) competition assay; type: cell-based; design: expressed in transfected cells; host or cells: 293T-HEK cells; settings: NanoLuc-tagged kinase in 293T-HEK cells, tracer displacement; read-out: NanoBRET CK-1d IC50
Method: The cell based CK-1δ target engagement assay is a NanoBRET competition assay that directly quantifies compound binding to full length kinases in live cells (Robers M et al. Nat. Comm. No 6 (2015)). The assay utilizes a cell permeable fluorescent tracer that reversibly binds to a NanoLuc-tagged kinase expressed in 293T-HEK cells. Intracellular target engagement of an unmodified test compound was measured by competitive displacement of the tracer resulting in a loss of bioluminescence energy transfer (BRET) that was quantified on a microplate-based luminometer.
as §1

T1 sequence (P48730 whole entry): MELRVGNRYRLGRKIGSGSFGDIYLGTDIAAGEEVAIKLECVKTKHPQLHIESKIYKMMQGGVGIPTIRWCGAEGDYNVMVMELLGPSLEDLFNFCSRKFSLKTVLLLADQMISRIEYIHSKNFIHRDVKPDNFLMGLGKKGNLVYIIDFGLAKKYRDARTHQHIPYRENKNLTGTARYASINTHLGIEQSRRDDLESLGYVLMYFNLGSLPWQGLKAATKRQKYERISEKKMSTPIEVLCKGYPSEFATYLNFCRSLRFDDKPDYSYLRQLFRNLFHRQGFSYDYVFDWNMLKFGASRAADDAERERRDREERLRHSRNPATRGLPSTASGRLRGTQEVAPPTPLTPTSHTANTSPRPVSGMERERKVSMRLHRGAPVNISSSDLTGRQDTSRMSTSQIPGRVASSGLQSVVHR

| pIC50 [1] | pIC50 [2] | Structure (SMILES) |
| --- | --- | --- |
| 7.00 to 7.30 | > 6.40 | Cc1cc(-c2nc(CC(C)C)[nH]c(=O)c2-c2ccc(Cl)cc2F)ccn1 [Compound 3, 5-(4-chloro-2-fluorophenyl)-2-isobutyl-6-(2-methylpyridin-4-yl)pyrimidin-4(3H)-one] |
| > 7.30 | > 6.40 | CC(C)Cc1nc(-c2ccncc2)c(-c2ccc(Cl)cc2)c(=O)[nH]1 [Compound 2, 5-(4-chlorophenyl)-2-isobutyl-6-(pyridin-4-yl)pyrimidin-4(3H)-one] |
| > 7.30 | 6.10 to 6.40 | CNc1nc(-c2ccncc2)c(-c2ccc(Cl)cc2)c(=O)n1C [Compound 1, 5-(4-chlorophenyl)-3-methyl-2-(methylamino)-6-(pyridin-4-yl)pyrimidin-4(3H)-one] |
